Laboratory results taken from patent US9023852B2, “1, 2, 4-thiadiazol-5-ylpiperazine derivatives useful in the treatment of neurodegenerative diseases” (Remynd NV, priority 2011, dated 2015).

System: M17—3TAU(P301L) cells
Assay: Neuroblastoma tauopathy model: inhibition of TAU-induced cytotoxicity (LDH)
Format: cell-based
Conditions: Homo sapiens, 168 h; inhibition of TAU-induced toxicity (LDH), 7 days differentiation with retinoic acid
Excerpt: A TAU expression plasmid was constructed by sub-cloning the cDNA encoding for human TAU-P301L protein, wherein proline at position 301 is substituted by a leucine residue, into mammalian expression vector pcDNA3.1 resulting in the plasmid pcDNA3.1-TAUP301L. Plasmids pcDNA3.1 and pcDNA3.1-TAU P301L were transfected into human neuroblastoma cells (BE-M17; ATCC No. CRL-2267™) using lipofectamine reagent and subsequently, independent clonal cell lines with the plasmids stably integrated into the genome were selected by antibiotic resistance selection (Geneticin (G418)), resulting in cell lines M17.pcDNA3 and M17—3TAUP301L. Expression of the TAUP301L gene in the M17—3TAUP301L cells was confirmed by Western blot analysis.
Differentiation of the cells with RA leads to phosphorylation and subsequent aggregation of TAU, inducing a tauopathy in these cells. Cytotoxicity of cells was measured by quantification of lactate dehydrogenase (LDH) levels. In dead cells LDH is leaked out of the cells into the medium due to a loss of plasma-membrane integrity.
Briefly, 3 days preceding the experiment pre-cultures of M17.pcDNA3 and M17—3TAU(P301L) cells were prepared, starting from a stock culture, at a density of 50.000-100.000 cells/cm2 in detection medium (Optimem Reduced Serum without phenol red (Gibco, Cat. 31985-047) supplemented with 1% fetal calf serum (FCS), 1 mM sodium pyruvate, 1× non-essential amino acids (NEAA), 500 μg/ml G418 and 0.5× antibiotic/antimycotic (ABAM)). At the day of the experiment these precultures were diluted to ˜0, 1.106 cells/ml in detection medium without FCS and 60 μL of this suspension is dispensed per well into a 96-well microtiter plate. After 3 hours of incubation at 37° C./5% CO2 an equal volume of detection medium containing 2.5 μM RA was added and subsequently incubated for 7 days at 37° C./5% CO2. After 7 days, LDH activity was determined using the Promega Cytotox 96 Non-Radioactive cytotoxicity assay (Cat. G1780), according the manufacturer's instructions. Cytotoxicity is measured as the ratio of LDH increase in the supernatant divided by the LDH increase in the total cell suspension (sum of the LDH measured in cells and supernatant).
The M17—3TAU(P301L) cell line makes it possible to assess the ability of novel compounds to inhibit TAU-induced cytotoxicity. […] Compounds were tested for their ability to hamper TAU-induced toxicity at different concentrations, ranging from low non-effective concentrations to high potent concentrations. Afterwards, the dose-dependent inhibition curve was used to calculate their EC50 (Table 1).

| Compound | EC50 |
| --- | --- |
| Cc1ccc(CCN2CCN(c3nc(-c4ccc(Cl)cc4)ns3)CC2)cc1 [Example 26, 1-[3-(4-Chloro-phenyl)-[1,2,4]thiadiazol-5-yl]-4-(2-p-tolyl-ethyl)-piperazine] | 4.9 nM |
| COc1cc(CCN2CCN(c3nc(-c4cccc(Cl)c4)ns3)CC2)ccn1 [Example 89, 1-[3-(3-Chloro-phenyl)-[1,2,4]thiadiazol-5-yl]-4-[2-(2-methoxy-pyridin-4-yl)-ethyl]-piperazine] | 1.6 nM |
| FC(F)(F)c1cccc(CCN2CCN(c3nc(-c4cncc(Cl)c4)ns3)CC2)c1 [Example 149, 1-[3-(5-Chloro-pyridin-3-yl)-[1,2,4]thiadiazol-5-yl]-4-[2-(3-trifluoromethyl-phenyl)-ethyl]-piperazine] | 3 nM |
| COc1ccc(CCN2CCN(c3nc(-c4cnnc(C)c4)ns3)CC2)cc1 [Example 177, 5-(4-(4-methoxyphenethyl)piperazin-1-yl)-3-(6-methylpyridazin-4-yl)-1,2,4-thiadiazole] | 1 nM |
| Cc1cc(-c2nsc(N3CCN(CCc4ccccc4)CC3)n2)cnn1 [Example 173, 3-(6-methylpyridazin-4-yl)-5-(4-phenethylpiperazin-1-yl)-1,2,4-thiadiazole] | 2.9 nM |
| COc1ccc(CCN2CCN(c3nc(-c4ccc(C#N)cc4)ns3)CC2)cc1 [Example 78, 4-(5-{4-[2-(4-Methoxy-phenyl)-ethyl]-piperazin-1-yl}-[1,2,4]thiadiazol-3-yl)-benzonitrile] | 2.1 nM |
| COc1ccc(CCN2CCN(c3nc(-c4ccc(Cl)cc4)ns3)CC2)cc1F [Example 80, 1-[3-(4-Chloro-phenyl)-[1,2,4]thiadiazol-5-yl]-4-[2-(3-fluoro-4-methoxy-phenyl)-ethyl]-piperazine] | 2.7 nM |
| COc1cccc(CCN2CCN(c3nc(-c4ccncc4)ns3)CC2)c1 [Example 20, 1-[2-(3-Methoxy-phenyl)-ethyl]-4-(3-pyridin-4-yl-[1,2,4]thiadiazol-5-yl)-piperazine] | 174 nM |
| Fc1ccc(-c2nsc(N3CCN(CCc4ccc(Cl)cc4)CC3)n2)cc1F [Example 104, 1-[2-(4-Chloro-phenyl)-ethyl]-4-[3-(3,4-difluoro-phenyl)-[1,2,4]thiadiazol-5-yl]-piperazine] | 11.2 nM |
| Clc1ccc(CCN2CCN(c3nc(-c4cc(Cl)ccn4)ns3)CC2)cc1 [Example 123, 1-[2-(4-Chloro-phenyl)-ethyl]-4-[3-(4-chloro-pyridin-2-yl)-[1,2,4]thiadiazol-5-yl]-piperazine] | 94.6 nM |
| COc1ccc(CCN2CCN(c3nc(-c4ccncc4)ns3)CC2)cc1 [Example 43, 1-[2-(4-Methoxy-phenyl)-ethyl]-4-(3-pyridin-4-yl-[1,2,4]thiadiazol-5-yl)-piperazine] | 3.3 nM |
| Cc1ccccc1CN1CCN(c2nc(-c3cccc(C#N)c3)ns2)CC1 [Example 119, 3-{5-[4-(2-Methyl-benzyl)-piperazin-1-yl]-[1,2,4]thiadiazol-3-yl}-benzonitrile] | 25 nM |
| COc1cccc(C(O)CN2CCN(c3nc(-c4ccc(Cl)cc4)ns3)CC2)c1 (stereo not shown) [Example 61, 2-{4-[3-(4-Chloro-phenyl)-[1,2,4]thiadiazol-5-yl]-piperazin-1-yl}-1-(3-methoxy-phenyl)-ethanol] | 44.4 nM |
| Fc1ccc(-c2nsc(N3CCN(CCc4ccccc4)CC3)n2)cc1F [Example 101, 1-[3-(3,4-Difluoro-phenyl)-[1,2,4]thiadiazol-5-yl]-4-phenethyl-piperazine] | 3.2 nM |
| Fc1cccc(CCN2CCN(c3nc(-c4ccc(Cl)cc4)ns3)CC2)c1 [Example 21, 1-[3-(4-Chloro-phenyl)-[1,2,4]thiadiazol-5-yl]-4-[2-(3-fluoro-phenyl)-ethyl]-piperazine] | 9.5 nM |
| Clc1cncc(-c2nsc(N3CCN(CCc4ccccc4)CC3)n2)c1 [Example 130, 1-[3-(5-Chloro-pyridin-3-yl)-[1,2,4]thiadiazol-5-yl]-4-phenethyl-piperazine] | 0.9 nM |
| Clc1ccc(CCN2CCN(c3nc(-c4ccc(Cl)cn4)ns3)CC2)cc1 [Example 124, 1-[2-(4-Chloro-phenyl)-ethyl]-4-[3-(5-chloro-pyridin-2-yl)-[1,2,4]thiadiazol-5-yl]-piperazine] | 458 nM |

| Compound | EC50 |
| --- | --- |
| N#Cc1ccc(-c2nsc(N3CCN(CCc4ccc(C(F)(F)F)cc4)CC3)n2)cc1 [Example 147, 4-(5-{4-[2-(4-Trifluoromethyl-phenyl)-ethyl]-piperazin-1-yl}-[1,2,4]thiadiazol-3-yl)-benzonitrile] | 176 nM |
| COc1ccc(CCN2CCN(c3nc(-c4ccc(OC)cc4)ns3)CC2)cc1 [Example 40, 1-[2-(4-Methoxy-phenyl)-ethyl]-4-[3-(4-methoxy-phenyl)-[1,2,4]thiadiazol-5-yl]-piperazine] | 14.1 nM |
| Fc1ccc(CCN2CCN(c3nc(-c4cccc(F)c4)ns3)CC2)cc1 [Example 86, 1-[2-(4-Fluoro-phenyl)-ethyl]-4-[3-(3-fluoro-phenyl)-[1,2,4]thiadiazol-5-yl]-piperazine] | 8.9 nM |
| Clc1ccc(-c2nsc(N3CCN(CCc4ccccc4)CC3)n2)nc1 [Example 121, 1-[3-(5-Chloro-pyridin-2-yl)-[1,2,4]thiadiazol-5-yl]-4-phenethyl-piperazine] | 34.6 nM |
| N#Cc1cccc(-c2nsc(N3CCN(CCc4ccccc4)CC3)n2)c1 [Example 109, 3-[5-(4-Phenethyl-piperazin-1-yl)-[1,2,4]thiadiazol-3-yl]-benzonitrile] | 3 nM |
| COc1cccc(CCN2CCN(c3nc(-c4cnccn4)ns3)CC2)c1 [Example 77, 2-(5-{4-[2-(3-Methoxy-phenyl)-ethyl]-piperazin-1-yl}-[1,2,4]thiadiazol-3-yl)-pyrazine] | 261 nM |
| FC(F)Oc1ccc(CCN2CCN(c3nc(-c4ccc(Cl)cc4)ns3)CC2)cc1 [Example 70, 1-[3-(4-Chloro-phenyl)-[1,2,4]thiadiazol-5-yl]-4-[2-(4-difluoromethoxy-phenyl)-ethyl]-piperazine] | 194 nM |
| Clc1cccc(-c2nsc(N3CCN(CCC4CCOCC4)CC3)n2)c1 [Example 165, 3-(3-chlorophenyl)-5-(4-(2-(tetrahydro-2H-pyran-4-yl)ethyl)piperazin-1-yl)-1,2,4-thiadiazole] | 1.1 nM |
| CCOc1ccc(CCN2CCN(c3nc(-c4ccc(Cl)cc4)ns3)CC2)cc1 [Example 50, 1-[3-(4-Chloro-phenyl)-[1,2,4]thiadiazol-5-yl]-4-[2-(4-ethoxy-phenyl)-ethyl]-piperazine] | 169 nM |
| COc1cccc(CCCN2CCN(c3nc(-c4ccc(Cl)cc4)ns3)CC2)c1 [Example 32, 1-[3-(4-Chloro-phenyl)-[1,2,4]thiadiazol-5-yl]-4-[3-(3-methoxy-phenyl)-propyl]-piperazine] | 368 nM |
| Cc1ccc(-c2nsc(N3CCN(CCc4ccc(Cl)cc4)CC3)n2)cn1 [Example 98, 1-[2-(4-Chloro-phenyl)-ethyl]-4-[3-(6-methyl-pyridin-3-yl)-[1,2,4]thiadiazol-5-yl]-piperazine] | 80.6 nM |
| Clc1ccc(-c2nsc(N3CCN(CC4(c5ccc(Cl)cc5)CC4)CC3)n2)cc1 [Example 68, 1-[1-(4-Chloro-phenyl)-cyclopropylmethyl]-4-[3-(4-chloro-phenyl)-[1,2,4]thiadiazol-5-yl]-piperazine] | 899 nM |
| COc1ccc(CCN2CCN(c3nc(-c4ccc(Cl)cc4)ns3)CC2)cn1 [Example 79, 1-[3-(4-Chloro-phenyl)-[1,2,4]thiadiazol-5-yl]-4-[2-(6-methoxy-pyridin-3-yl)-ethyl]-piperazine] | 2.8 nM |
| FC(F)(F)c1ccc(CCN2CCN(c3nc(-c4cccc(Cl)c4)ns3)CC2)cc1 [Example 145, 1-[3-(3-Chloro-phenyl)-[1,2,4]thiadiazol-5-yl]-4-[2-(4-trifluoromethyl-phenyl)-ethyl]-piperazine] | 462 nM |
| COc1cc(CCN2CCN(c3nc(-c4ccc(F)c(F)c4)ns3)CC2)ccn1 [Example 106, 1-[3-(3,4-Difluoro-phenyl)-[1,2,4]thiadiazol-5-yl]-4-[2-(2-methoxy-pyridin-4-yl)-ethyl]-piperazine] | 3 nM |
| Cc1ccccc1CN1CCN(c2nc(-c3cc(Cl)ccn3)ns2)CC1 [Example 128, 1-[3-(4-Chloro-pyridin-2-yl)-[1,2,4]thiadiazol-5-yl]-4-(2-methyl-benzyl)-piperazine] | 110 nM |
| Cc1ccc(-c2nsc(N3CCN(CCc4ccccc4)CC3)n2)cn1 [Example 94, 1-[3-(6-Methyl-pyridin-3-yl)-[1,2,4]thiadiazol-5-yl]-4-phenethyl-piperazine] | 9.5 nM |
